Source: patent US10670605B2, “Cysteine reactive probes and uses thereof” (The Scripps Research Institute, priority 2015, dated 2020)
Each block holds one compound with its values, some of them ahead of it.

How the values were obtained:
Assay in all cases: Competitive isoTOP-ABPP, cell lysates
Assay type in all cases: binding
PDIA6 C55 (Q15084) = target: T1, PDIA6 C55 (Q15084) (Homo sapiens, UniProt Q15084)
T1 sequence (Q15084 20-440): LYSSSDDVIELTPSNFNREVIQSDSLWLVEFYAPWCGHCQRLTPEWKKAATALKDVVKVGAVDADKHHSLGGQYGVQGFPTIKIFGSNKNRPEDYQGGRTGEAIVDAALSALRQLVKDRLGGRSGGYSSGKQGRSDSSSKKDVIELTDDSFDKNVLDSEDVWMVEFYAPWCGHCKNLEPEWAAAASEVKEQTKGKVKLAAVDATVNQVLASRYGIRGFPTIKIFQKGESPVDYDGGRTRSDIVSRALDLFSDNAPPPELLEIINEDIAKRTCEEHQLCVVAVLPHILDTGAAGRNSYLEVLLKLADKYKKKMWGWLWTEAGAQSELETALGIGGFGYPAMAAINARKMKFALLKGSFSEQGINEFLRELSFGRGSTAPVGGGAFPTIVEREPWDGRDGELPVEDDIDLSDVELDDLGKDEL

ACAT1 C196 (P24752) = target: T2, ACAT1 C196 (P24752) (Homo sapiens, UniProt P24752)
T2 sequence (P24752 34-427): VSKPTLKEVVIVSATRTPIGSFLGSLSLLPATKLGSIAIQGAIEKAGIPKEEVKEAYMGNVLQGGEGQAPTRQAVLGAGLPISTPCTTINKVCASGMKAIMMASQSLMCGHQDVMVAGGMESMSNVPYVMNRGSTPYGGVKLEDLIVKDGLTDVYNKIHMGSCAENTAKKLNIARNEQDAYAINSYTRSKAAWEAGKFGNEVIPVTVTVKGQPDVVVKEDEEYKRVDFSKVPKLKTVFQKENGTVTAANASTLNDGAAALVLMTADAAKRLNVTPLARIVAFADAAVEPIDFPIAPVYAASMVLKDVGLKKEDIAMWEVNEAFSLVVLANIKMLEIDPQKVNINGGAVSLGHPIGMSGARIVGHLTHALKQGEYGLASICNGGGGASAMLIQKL

PCK2 C306 (Q16822) = target: T3, PCK2 C306 (Q16822) (Homo sapiens, UniProt Q16822)
T3 sequence (Q16822 33-640): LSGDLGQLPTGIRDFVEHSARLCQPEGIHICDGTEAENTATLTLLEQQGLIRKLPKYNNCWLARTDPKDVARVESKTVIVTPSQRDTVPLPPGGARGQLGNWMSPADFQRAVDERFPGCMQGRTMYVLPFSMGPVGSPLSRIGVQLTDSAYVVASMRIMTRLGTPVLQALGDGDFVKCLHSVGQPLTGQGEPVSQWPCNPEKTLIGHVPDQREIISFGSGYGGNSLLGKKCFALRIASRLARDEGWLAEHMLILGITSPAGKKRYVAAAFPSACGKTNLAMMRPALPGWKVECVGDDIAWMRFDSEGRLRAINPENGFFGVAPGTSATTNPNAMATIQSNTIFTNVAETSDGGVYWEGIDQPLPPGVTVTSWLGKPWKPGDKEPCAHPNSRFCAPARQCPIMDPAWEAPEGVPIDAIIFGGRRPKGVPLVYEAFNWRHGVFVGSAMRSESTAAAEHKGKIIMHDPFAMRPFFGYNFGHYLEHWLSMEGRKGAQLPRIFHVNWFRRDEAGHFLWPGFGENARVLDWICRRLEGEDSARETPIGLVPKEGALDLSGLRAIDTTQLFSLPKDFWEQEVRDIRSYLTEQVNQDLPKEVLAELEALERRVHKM

Structure (SMILES): O=C(CCl)NC1C(O)OC(CO)C(O)C1O (mixture of isomers) [compound 44]
isoTOP-ABPP reactivity profile ratio, Q15084_C55 (PDIA6 C55 (Q15084); 500 μm, in-vitro_ramos_231): 1.0
isoTOP-ABPP reactivity profile ratio, P24752_C196 (ACAT1 C196 (P24752); 500 μm, in-vitro_ramos_231): 0.8

Structure (SMILES): O=C(CCl)Nc1cc(C(F)(F)F)cc(C(F)(F)F)c1 [compound 3]
R value (DMSO/fragment) (PCK2 C306 (Q16822); 500 μM, in vitro, MDA-MB-231): 10.6
R value (DMSO/fragment) (PCK2 C306 (Q16822); 500 μM, invitro, ramos): 0.9
R value (DMSO/fragment) (PDIA6 C55 (Q15084); 500 μM, in vitro, MDA-MB-231): 17.9
R value (DMSO/fragment) (PDIA6 C55 (Q15084); 500 μM, invitro, ramos): 14.9
R value (DMSO/fragment) (ACAT1 C196 (P24752); 500 μM, in vitro, MDA-MB-231): 1.7
R value (DMSO/fragment) (ACAT1 C196 (P24752); 500 μM, invitro, ramos): 3.1

Structure (SMILES): COc1ccc(C2CC(c3cccs3)=NN2C(=O)CCl)cc1 (stereo not shown) [compound 4]
R value (DMSO/fragment) (PCK2 C306 (Q16822); 250 μM, in vitro, MDA-MB-231): 2.2
R value (DMSO/fragment) (PDIA6 C55 (Q15084); 250 μM, in vitro, MDA-MB-231): 1.3
R value (DMSO/fragment) (PDIA6 C55 (Q15084); 250 μM, in vitro, Ramos): 1.2
R value (DMSO/fragment) (ACAT1 C196 (P24752); 250 μM, in vitro, MDA-MB-231): 1.9
R value (DMSO/fragment) (ACAT1 C196 (P24752); 250 μM, in vitro, Ramos): 0.5

Structure (SMILES): C=CC(=O)N(c1ccccc1)c1ccc(Br)cc1 [compound 5]
isoTOP-ABPP ratio, Q16822_C306 (PCK2 C306 (Q16822); 500 μM, invitro, 231): 1.7
isoTOP-ABPP ratio Q15084_C55 (PDIA6 C55 (Q15084); 500 μM, invitro, 231): 0.9
isoTOP-ABPP ratio Q15084_C55 (PDIA6 C55 (Q15084); 500 μM, invitro, ramos): 1.1
isoTOP-ABPP ratio, P24752_C196 (ACAT1 C196 (P24752); 500 μM, invitro, 231): 1.5
isoTOP-ABPP ratio, P24752_C196 (ACAT1 C196 (P24752); 500 μM, invitro, ramos): 2.2

Structure (SMILES): O=C(CCl)NC(=O)NC12CC3CC(CC(C3)C1)C2 [compound 12]
isoTOP-ABPP ratio, Q16822_C306 (PCK2 C306 (Q16822); 500 μM, invitro, 231): 1.5
isoTOP-ABPP ratio, Q16822_C306 (PCK2 C306 (Q16822); 500 μM, invitro, ramos): 0.7
isoTOP-ABPP ratio Q15084_C55 (PDIA6 C55 (Q15084); 500 μM, invitro, 231): 3.7
isoTOP-ABPP ratio Q15084_C55 (PDIA6 C55 (Q15084); 500 μM, invitro, ramos): 3.1
isoTOP-ABPP ratio, P24752_C196 (ACAT1 C196 (P24752); 500 μM, invitro, 231): 1.2
isoTOP-ABPP ratio, P24752_C196 (ACAT1 C196 (P24752); 500 μM, invitro, ramos): 0.9

Structure (SMILES): C=CC(=O)N(Cc1cccnc1)c1ccc(Oc2ccccc2)c(C(F)(F)F)c1 [compound 15]
isoTOP-ABPP ratio Q15084_C55 (PDIA6 C55 (Q15084); 500 μM, invitro, 231): 0.8
isoTOP-ABPP ratio (reactivity profile), Q15084_C55 (PDIA6 C55 (Q15084); 500 μm in-vitro ramos): 1.0
isoTOP-ABPP ratio, P24752_C196 (ACAT1 C196 (P24752); 500 μM, invitro, 231): 0.9
isoTOP-ABPP ratio (reactivity profile), P24752_C196 (ACAT1 C196 (P24752); 500 μm in-vitro ramos): 1.6

Structure (SMILES): O=C(CCl)N1CCC(C(O)(c2ccccc2)c2ccccc2)CC1 [compound 20]
isoTOP-ABPP ratio (reactivity profile), Q16822_C306 (PCK2 C306 (Q16822); 500 μm in-vitro ramos): 1.6
isoTOP-ABPP ratio (reactivity profile), Q16822_C306 (PCK2 C306 (Q16822); 500 μm in-vitro ramos_231): 2.5
isoTOP-ABPP ratio (reactivity profile), Q15084_C55 (PDIA6 C55 (Q15084); 500 μm in-vitro ramos): 2.0
isoTOP-ABPP ratio (reactivity profile), Q15084_C55 (PDIA6 C55 (Q15084); 500 μm in-vitro ramos_231): 1.7
isoTOP-ABPP ratio (reactivity profile), P24752_C196 (ACAT1 C196 (P24752); 500 μm in-vitro ramos): 2.9
isoTOP-ABPP ratio (reactivity profile), P24752_C196 (ACAT1 C196 (P24752); 500 μm in-vitro ramos_231): 3.7

Structure (SMILES): O=C(CCl)NC12CC3CC(CC(C3)C1)C2 [compound 21]
isoTOP-ABPP ratio (reactivity profile), Q16822_C306 (PCK2 C306 (Q16822); 500 μm in-vitro ramos): 2.0
isoTOP-ABPP ratio (reactivity profile), Q16822_C306 (PCK2 C306 (Q16822); 500 μm in-vitro ramos_231): 1.2
isoTOP-ABPP ratio (reactivity profile), Q15084_C55 (PDIA6 C55 (Q15084); 500 μm in-vitro ramos): 2.1
isoTOP-ABPP ratio (reactivity profile), Q15084_C55 (PDIA6 C55 (Q15084); 500 μm in-vitro ramos_231): 1.1
isoTOP-ABPP ratio (reactivity profile), P24752_C196 (ACAT1 C196 (P24752); 500 μm in-vitro ramos): 1.1
isoTOP-ABPP ratio (reactivity profile), P24752_C196 (ACAT1 C196 (P24752); 500 μm in-vitro ramos_231): 1.0

Structure (SMILES): O=C(CCl)N1CCOCC1 [compound 22]
isoTOP-ABPP ratio (reactivity profile), Q15084_C55 (PDIA6 C55 (Q15084); 500 μm in-vitro ramos): 1.6
isoTOP-ABPP ratio (reactivity profile), Q15084_C55 (PDIA6 C55 (Q15084); 500 μm in-vitro ramos_231): 2.1
isoTOP-ABPP ratio (reactivity profile), P24752_C196 (ACAT1 C196 (P24752); 500 μm in-vitro ramos): 0.7
isoTOP-ABPP ratio (reactivity profile), P24752_C196 (ACAT1 C196 (P24752); 500 μm in-vitro ramos_231): 1.4

The remaining lines, values ahead:

R value (DMSO/fragment) (PDIA6 C55 (Q15084); 500 μM, in vitro, MDA-MB-231): 6.3
R value (DMSO/fragment) (PDIA6 C55 (Q15084); 500 μM, invitro, ramos): 7.1
R value (DMSO/fragment) (ACAT1 C196 (P24752); 500 μM, in vitro, MDA-MB-231): 12.4
R value (DMSO/fragment) (ACAT1 C196 (P24752); 500 μM, invitro, ramos): 9.3
Structure (SMILES): COc1ccc2c(c1)CCCN2C(=O)CCl [compound 2]

isoTOP-ABPP ratio Q15084_C55 (PDIA6 C55 (Q15084); 500 μM, invitro, 231): 1.0
isoTOP-ABPP ratio, P24752_C196 (ACAT1 C196 (P24752); 500 μM, invitro, 231): 1.0
Structure (SMILES): CNS(=O)(=O)C=Cc1ccc2c(ccn2Cc2ccccc2)c1 [compound 6]

isoTOP-ABPP ratio, Q16822_C306 (PCK2 C306 (Q16822); 500 μM, invitro, 231): 1.9
isoTOP-ABPP ratio, Q16822_C306 (PCK2 C306 (Q16822); 500 μM, invitro, ramos): 1.1
isoTOP-ABPP ratio Q15084_C55 (PDIA6 C55 (Q15084); 500 μM, invitro, 231): 20.0
isoTOP-ABPP ratio, P24752_C196 (ACAT1 C196 (P24752); 500 μM, invitro, 231): 2.5
isoTOP-ABPP ratio, P24752_C196 (ACAT1 C196 (P24752); 500 μM, invitro, ramos): 1.7
Structure (SMILES): O=C(CCl)N1CCN(S(=O)(=O)c2ccccc2F)CC1 [compound 10]

isoTOP-ABPP ratio, Q16822_C306 (PCK2 C306 (Q16822); 500 μM, invitro, 231): 3.2
isoTOP-ABPP ratio, Q16822_C306 (PCK2 C306 (Q16822); 500 μM, invitro, ramos): 1.2
isoTOP-ABPP ratio Q15084_C55 (PDIA6 C55 (Q15084); 500 μM, invitro, 231): 20.0
isoTOP-ABPP ratio Q15084_C55 (PDIA6 C55 (Q15084); 500 μM, invitro, ramos): 20.0
isoTOP-ABPP ratio, P24752_C196 (ACAT1 C196 (P24752); 500 μM, invitro, 231): 1.5
isoTOP-ABPP ratio, P24752_C196 (ACAT1 C196 (P24752); 500 μM, invitro, ramos): 1.3
Structure (SMILES): Cn1cc(S(=O)(=O)N2CCOCC2)cc1C(=O)NC(=O)CCl [compound 11]

isoTOP-ABPP ratio, Q16822_C306 (PCK2 C306 (Q16822); 500 μM, invitro, 231): 0.9
isoTOP-ABPP ratio, Q16822_C306 (PCK2 C306 (Q16822); 500 μM, invitro, ramos): 1.0
isoTOP-ABPP ratio Q15084_C55 (PDIA6 C55 (Q15084); 500 μM, invitro, 231): 1.9
isoTOP-ABPP ratio Q15084_C55 (PDIA6 C55 (Q15084); 500 μM, invitro, ramos): 1.1
isoTOP-ABPP ratio, P24752_C196 (ACAT1 C196 (P24752); 500 μM, invitro, 231): 1.6
isoTOP-ABPP ratio, P24752_C196 (ACAT1 C196 (P24752); 500 μM, invitro, ramos): 1.7
Structure (SMILES): O=C(CCl)NCCc1c[nH]c2ccccc12 [compound 13]
